In patent US8361999B2, “Methods of treating cholesterol gallstone disease with ezetimibe” (Pontificia Universidad Catolica de Chile, priority 2005, dated 2013):

What was measured:
[1] = tested on: C57BL/6J mice; experiment: Biliary flow and hepatic secretion of biliary lipids; format: in vivo, mouse
Protocol: Surgery and sample harvest. The groups were maintained for 14 days (protocol #1) or 30 days (protocol #2) in the different experimental conditions. During the last three days of the protocols, 24 h depositions were collected from the different groups (pool) to determine the fecal excretion of neutral sterols (cholesterol) and acidic sterols (bile salts). At the end of the time established in the protocols, the mice were anesthetized (between 08:00-10:00 AM) with an intraperitoneal pentobarbital injection in doses of 4.5 mg per 100 gr body weight (Amigo et al., 2000) and subjected to surgery. Standardized surgery consists in an extended […] and visualization of abdominal organs, including liver, biliary tree and gallbladder. First, we performed a resection of the gallbladder (cholecystectomy), with the cystic duct previously ligated (Amigo et al., 2002; Amigo et al., 2000; Amigo et al., 2003b). The gallbladder is removed and visually inspected to determine the presence of gallstones. Then, the gallbladder bile is extracted to analyze the presence of cholesterol crystals in the fresh samples under the microscope with polarized light (20×). Aliquots are stored at −20° C. for subsequent chemical analysis. Afterwards, the common biliary duct is cannulated (biliary fistula) with a P-10 polyethylene cannula to collect bile during 15 minutes, determine bile flow by gravimetry (1 g bile=1 ml; bile flow is expressed as μl/min/g of mouse liver) and for posterior chemical analysis of biliary lipids and glutathione, as specified later. […] Then, the liver is removed, weighted, frozen in liquid nitrogen and stored at −80 for subsequent analyses. The plasma is separated by centrifugation at 1,500 rpm and stored at −80° C. for later analysis. The animal protocols were approved by our institution Ethics Committee and the animals were treated according to international care rules for experimental animals.
Intestinal absorption of cholesterol and bile salts. The capacity of Ezetimibe to inhibit cholesterol and bile salt absorption was indirectly determined by quantification of neutral sterols (cholesterol) and acidic sterols (bile acids) present in the feces collected on day 12, 13 and 14 of the experiment (three days). In order to determine cholesterol (neutral sterols) fecal excretion, the feces were dried at 50° C. for three days and then weighted to obtain an average of fecal excretion per day (in grams). […] 50 μl aliquots, in duplicate, are dried at room temperature, and total cholesterol is quantified according to the enzymatic method described above. The values obtained are expressed as μmoles cholesterol/day/100 g of mouse (Miettinen et al., 1965). […]

[2] = tested on: C57BL/6J mice; experiment: Glutathione biliary secretion; format: in vivo, mouse; settings: lithogenic diet (FIG. 4)
Protocol: Surgery and sample harvest. The groups were maintained for 14 days (protocol #1) or 30 days (protocol #2) in the different experimental conditions. During the last three days of the protocols, 24 h depositions were collected from the different groups (pool) to determine the fecal excretion of neutral sterols (cholesterol) and acidic sterols (bile salts). At the end of the time established in the protocols, the mice were anesthetized (between 08:00-10:00 AM) with an intraperitoneal pentobarbital injection in doses of 4.5 mg per 100 gr body weight (Amigo et al., 2000) and subjected to surgery. Standardized surgery consists in an extended […] and visualization of abdominal organs, including liver, biliary tree and gallbladder. […] Afterwards, the common biliary duct is cannulated (biliary fistula) with a P-10 polyethylene cannula to collect bile during 15 minutes, determine bile flow by gravimetry (1 g bile=1 ml; bile flow is expressed as μl/min/g of mouse liver) and for posterior chemical analysis of biliary lipids and glutathione, as specified later. […]
Biliary gluthation. Biliary gluthation was quantified from the bile obtained by cannulation of the biliary duct for a 5 minute period with tubes containing 5 μl sulfosalicylic acid. […] The reaction mix was incubated at 37° C., measured at 412 nm, and an enzymatic kinetic curve was obtained using different […] concentrations as standard. […]

O=C1[C@H](CC[C@H](O)c2ccc(F)cc2)[C@@H](c2ccc(O)cc2)N1c1ccc(F)cc1 [Ezetimibe, (−)-1-(4-fluorophenyl)-(3R)-[3-(4-fluorophenyl)-(.S)-hydroxypropyl]-(4S)-(4-hydroxyphenyl)-2-azetidinone]
biliary flow larger than in the group on lithogenic diet without ezetimibe (significant) ([1]; lithogenic diet): 50-60%
secretion of bile salts and phospholipids vs group without ezetimibe ([1]; lithogenic diet (FIG. 3)): increase
secretion of biliary cholesterol vs group without ezetimibe ([1]; lithogenic diet (FIG. 3)): did not associate to a greater secretion
increase in biliary flow (slight, non-significant) ([1]; low cholesterol control diet): 30-40%
increase in glutathione secretion vs lithogenic diet only (significant) [2]: 200%
